# According to patent US6914045B2, “Glycopeptide antibiotics” (Wyeth Holdings Corporation, priority 2001, dated 2005):
# What was measured:
# Experiment in all cases: in vitro antibacterial evaluation, MIC by broth dilution
# Type in all cases: cell-based
# Escherichia coli = conditions: 18 hours at 35° C.
# Outline: (§1)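 Broth dilution per NCCLS standard M7-A2 in Muller-Hinton II […], with an inoculum of 5×10^5 CFU/mL and antibiotic spanning 64-0.06 μg/mL. The MIC is the lowest concentration that inhibits growth of the organism.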
# Streptococcus sp. = conditions: broth dilution, 18 hours at 35° C.
# Outline: as §1
# Enterococcus sp. = conditions: broth dilution, 18 hours at 35° C.
# Outline: as §1
# Staphylococcus sp. = conditions: broth dilution, 18 hours at 35° C.
# Outline: as §1
structure (smiles),measurement,setting,value
"N=C1NCC(C(O)C2NC(=O)C(Cc3ccc(OC4OC(CO)C(OC5OC(CO)C(O)C6OC7(OC56)C5CC6CC(C5)CC7C6)C(O)C4O)cc3)NC(=O)C(CC3CCCCC3)NC(=O)CNC(=O)C(CO)NC(=O)C(C(O)C3CNC(=N)N3C3OC(CO)C(O)C(O)C3O)NC2=O)N1 (centres unmarked) [Example 106a, Cyclo[3-cyclohexylalanyl-O-[4-O-[2,3-O-(2-adamantylidene)hexopyranosyl]hexopyranosyl]-tyrosyl-3-(2-iminoimidazolidin-4-yl)seryl-3-(3-hexopyranosyl-2-iminoimidazolidin-4-yl)-serylserylglycyl]]",MIC Escherichia coli (ATCC 25922),Escherichia coli; strain ATCC 25922,32 µg/mL
same,MIC Escherichia coli (GC 4559),Escherichia coli; strain GC 4559,32 µg/mL
same,MIC Escherichia coli (GC 4560),Escherichia coli; strain GC 4560,2 µg/mL
same,MIC Streptococcus agalactiae (GC 4564),Streptococcus sp.; Streptococcus agalactiae (GC 4564),0.25 µg/mL
same,MIC Streptococcus pneumoniae (ATCC 6301),Streptococcus sp.; Streptococcus pneumoniae (ATCC 6301),0.12 µg/mL
same,MIC Streptococcus pneumoniae (GC 1894),Streptococcus sp.; Streptococcus pneumoniae (GC 1894),<0.06 µg/mL
same,MIC Streptococcus pneumoniae (GC 4565),Streptococcus sp.; Streptococcus pneumoniae (GC 4565),<0.06 µg/mL
same,MIC Streptococcus pyogenes (GC 4563),Streptococcus sp.; Streptococcus pyogenes (GC 4563),0.25 µg/mL
same,MIC Streptococcus pneumoniae (ATCC 6301),Streptococcus sp.; strain ATCC 6301,0.12 µg/mL
same,MIC Streptococcus pneumoniae (GC 1894),Streptococcus sp.; strain GC 1894,<0.06 µg/mL
same,MIC Streptococcus pyogenes (GC 4563),Streptococcus sp.; strain GC 4563,0.25 µg/mL
same,MIC Streptococcus agalactiae (GC 4564),Streptococcus sp.; strain GC 4564,0.25 µg/mL
same,MIC Streptococcus pneumoniae (GC 4565),Streptococcus sp.; strain GC 4565,<0.06 µg/mL
same,MIC Enterococcus avium (GC 4558),Enterococcus sp.; Enterococcus avium (GC 4558),4 µg/mL
same,MIC Enterococcus faecalis (ATCC 29212),Enterococcus sp.; Enterococcus faecalis (ATCC 29212),8 µg/mL
same,MIC Enterococcus faecalis (GC 2242),Enterococcus sp.; Enterococcus faecalis (GC 2242),4 µg/mL
same,MIC Enterococcus faecalis (GC 2691),Enterococcus sp.; Enterococcus faecalis (GC 2691),4 µg/mL
same,MIC Enterococcus faecalis (GC 3059),Enterococcus sp.; Enterococcus faecalis (GC 3059),8 µg/mL
same,MIC Enterococcus faecalis (GC 4552),Enterococcus sp.; Enterococcus faecalis (GC 4552),4 µg/mL
same,MIC Enterococcus faecalis (GC 4553),Enterococcus sp.; Enterococcus faecalis (GC 4553),4 µg/mL
same,MIC Enterococcus faecalis (GC 4554),Enterococcus sp.; Enterococcus faecalis (GC 4554),8 µg/mL
same,MIC Enterococcus faecalis (GC 6189),Enterococcus sp.; Enterococcus faecalis (GC 6189),4 µg/mL
same,MIC Enterococcus faecium (GC 2243),Enterococcus sp.; Enterococcus faecium (GC 2243),4 µg/mL
same,MIC Enterococcus faecium (GC 4556),Enterococcus sp.; Enterococcus faecium (GC 4556),8 µg/mL
same,MIC Enterococcus faecium (GC 4557),Enterococcus sp.; Enterococcus faecium (GC 4557),2 µg/mL
same,MIC Enterococcus faecalis (ATCC 29212),Enterococcus sp.; strain ATCC 29212,8 µg/mL
same,MIC Enterococcus faecalis (GC 2242),Enterococcus sp.; strain GC 2242,4 µg/mL
same,MIC Enterococcus faecium (GC 2243),Enterococcus sp.; strain GC 2243,4 µg/mL
same,MIC Enterococcus faecalis (GC 2691),Enterococcus sp.; strain GC 2691,4 µg/mL
same,MIC Enterococcus faecalis (GC 3059),Enterococcus sp.; strain GC 3059,8 µg/mL
same,MIC Enterococcus faecalis (GC 4552),Enterococcus sp.; strain GC 4552,4 µg/mL
same,MIC Enterococcus faecalis (GC 4553),Enterococcus sp.; strain GC 4553,4 µg/mL
same,MIC Enterococcus faecalis (GC 4554),Enterococcus sp.; strain GC 4554,8 µg/mL
same,MIC Enterococcus faecium (GC 4556),Enterococcus sp.; strain GC 4556,8 µg/mL
same,MIC Enterococcus faecium (GC 4557),Enterococcus sp.; strain GC 4557,2 µg/mL
same,MIC Enterococcus avium (GC 4558),Enterococcus sp.; strain GC 4558,4 µg/mL
same,MIC Enterococcus faecalis (GC 6189),Enterococcus sp.; strain GC 6189,4 µg/mL
same,MIC Coagulase Negative Staphylococcus (GC 4547),Staphylococcus sp.,2 µg/mL
same,MIC Coagulase Negative Staphylococcus (GC 4548),Staphylococcus sp.,1 µg/mL
same,MIC Coagulase Negative Staphylococcus (GC 4549),Staphylococcus sp.,1 µg/mL
same,MIC Coagulase Negative Staphylococcus (GC 4551),Staphylococcus sp.,2 µg/mL
same,MIC Staphylococcus aureus (ATCC 29213),Staphylococcus sp.,2 µg/mL
same,MIC Staphylococcus aureus (GC 1131),Staphylococcus sp.,2 µg/mL
same,MIC Staphylococcus aureus (GC 3051),Staphylococcus sp.,2 µg/mL
same,MIC Staphylococcus aureus (GC 3053),Staphylococcus sp.,2 µg/mL
same,MIC Staphylococcus aureus (GC 4541),Staphylococcus sp.,2 µg/mL
same,MIC Staphylococcus aureus (GC 4542),Staphylococcus sp.,2 µg/mL
same,MIC Staphylococcus aureus (GC 4544),Staphylococcus sp.,4 µg/mL
same,MIC Staphylococcus aureus (GC 4545),Staphylococcus sp.,2 µg/mL
same,MIC Staphylococcus aureus-SMITH (GC 4543),Staphylococcus sp.,2 µg/mL
same,MIC Staphylococcus haemolyticus (GC 4546),Staphylococcus sp.,2 µg/mL
same,MIC Staphylococcus haemolyticus (GC 4546),Staphylococcus sp.; strain GC 4546,2 µg/mL
same,MIC Coagulase Negative Staphylococcus (GC 4547),Staphylococcus sp.; strain GC 4547,2 µg/mL
same,MIC Coagulase Negative Staphylococcus (GC 4548),Staphylococcus sp.; strain GC 4548,1 µg/mL
same,MIC Coagulase Negative Staphylococcus (GC 4549),Staphylococcus sp.; strain GC 4549,1 µg/mL
same,MIC Coagulase Negative Staphylococcus (GC 4551),Staphylococcus sp.; strain GC 4551,2 µg/mL
same,MIC Staphylococcus aureus-SMITH (GC 4543),Staphylococcus sp.; strain SMITH GC 4543,2 µg/mL
same,MIC Staphylococcus aureus (ATCC 29213),Staphylococcus sp.; strain ATCC 29213,2 µg/mL
same,MIC Staphylococcus aureus (GC 1131),Staphylococcus sp.; strain GC 1131,2 µg/mL
same,MIC Staphylococcus aureus (GC 3051),Staphylococcus sp.; strain GC 3051,2 µg/mL
same,MIC Staphylococcus aureus (GC 3053),Staphylococcus sp.; strain GC 3053,2 µg/mL
same,MIC Staphylococcus aureus (GC 4541),Staphylococcus sp.; strain GC 4541,2 µg/mL
same,MIC Staphylococcus aureus (GC 4542),Staphylococcus sp.; strain GC 4542,2 µg/mL
same,MIC Staphylococcus aureus (GC 4544),Staphylococcus sp.; strain GC 4544,4 µg/mL
same,MIC Staphylococcus aureus (GC 4545),Staphylococcus sp.; strain GC 4545,2 µg/mL
